Measurements as given in US10363239B2, “Method for inhibiting growth of cancer cells” (Pain Therapeutics, Inc., priority 2013, dated 2019).

Assays:
Format in all cases: cell-based, human
[1] = system: pS2448mTOR, pS473Akt, pY/pT-ERK2 in small-cell lung carcinoma cells; assay: Activated (phosphorylated) mTOR, Akt and ERK2 levels (immunoprecipitation, Western blotting); conditions: 0.1-5 nM; 4 days
Protocol: (§1) Cells were treated with vehicle and 0.1-5 nM C0105 for 4 days. Cells were washed, solubilized and the resultant cell lysate was immunoprecipitated with anti-mTOR, -Akt or -ERK2. The levels of pS^2448mTOR, pS^473Akt, pY/pTERK2 in the respective anti-mTOR, -Akt, and -ERK2 immunoprecipitates were determined by Western blotting. […] The density of protein bands was measured by densitometric scanning. […] N=4. *p<0.01 compared to vehicle (open bars). […]
(§2) The cell lysates were diluted 5-fold with immunoprecipitation buffer and immunoprecipitated with anti-FLNA, -Akt, -mTOR and -ERK2 as described previously [Talbot et al., J Clin Inv 122(4):1-23 (2012); Wang et al., J Neurosci 32(29):9773-9784 (2012)]. The levels of FLNA linkages, activated phosphorylated Akt (pS^473 and pT^308), phosphorylated mTOR (pS^2448) and phosphorylated ERK2 (pY/pT) were determined in anti-FLNA, -Akt, -mTOR and -ERK2 immunoprecipitates by Western blotting with appropriate antibodies directed against PTEN, PP2A, K-RAS, ras-GAP (FLNA linkages), pS^473Akt, pT^308Akt, pS^2448mTOR and pY/pT ERK2 (activation of Akt, mTOR and ERK2).

[2] = system: pS2448mTOR, pS473Akt, pY/pT-ERK2 in primary lung fibroblast cells; assay: as above; conditions: 0.1-5 nM; 4 days
Protocol: as §1, §2

[3] = system: MiaPaCa2 cells; assay: Cell proliferation by cell-cycling markers Ki67 and PCNA (Western blots); conditions: 0.1-5 nM; 4 days
Protocol: The effect of contact with Compound C0105 on cell proliferation was determined by the levels of cell-cycling markers Ki67 and PCNA using Western blots. Cells treated with vehicle and 0.1-5 nM C0105 for 4 days were collected, washed and solubilized (lysed). The resultant cell lysates were size-fractionated on SDS-PAGE and Western blotting to determine the levels of Ki67, PCNA and actin (loading control). The protein bands were quantified using densitometric scanning. […] N=4. *p<0.01 compared to vehicle (open bars).
To study the effect of Compound C0105 on PI3K activity, the cancer and primary normal cells were cultured to approximately 60-70% confluency, serum deprived for 4 hours, briefly washed with PBS and treated with vehicle or 0.1, 0.5, 1 or 5 nM Compound C0105 for 24 hours with in 0.1% FBS-containing culture medium. […] The cell pellets were sonicated in ice-cold immunoprecipitation buffer and protein concentrations measured by the Bradford method. […]
Immunoreactivity was visualized by reaction in ECL Plus chemiluminescent reagent for exactly 5 minutes, followed by immediate exposure of the blot to X-ray film (Z & Z Medical). Bands at the relevant molecular masses of Ki67 and PCNA were quantified by densitometric scan. Membranes were stripped, washed 5× in 0.1% PBST (2 minutes each) and the actin content analyzed by immunoblotting using monoclonal anti-actin to illustrate even loading.

[4] = system: melanoma cells; assay: Glucose deprivation-induced apoptosis markers (cleaved PARP-1, caspase-3) by Western blotting; conditions: 1 nM; Day 3 and 4
Protocol: . Cell density was assessed at day 3 and 4. […] . Data are mean±S.E.M. of ratios (FIG. 4B) and % inhibition (FIG. 4C). […] N=5. *p<0.01 compared to Day 0. #p<0.01 compared to vehicle (open bars).
. The cells were washed with PBS, incubated in 0.1% fetal bovine serum (FBS) for 16 hours and incubated in glucose-free 0.1% FBS-containing medium for up to 4 days in the presence of vehicle or 1 nM Compound C0105. The cells in the entire well were collected by centrifugation. […] The protein concentrations were measured by the Bradford method.
The cells were homogenized and the obtained homogenates were centrifuged to remove nucleus and mitochondria. […] The level of apoptotic cell death was determined using Western blotting in 50 μg solubilized cell lysates with antibodies against cleaved PARP-1 (Asp^214) and caspase-3 (Asp^175), both at 1:1000 dilution. […] Bands at the relevant molecular masses of Ki67 and PCNA were quantified by densitometric scan. Membranes were stripped, washed 5× in 0.1% PBST (2 minutes each wash) and the actin content analyzed by immunoblotting using monoclonal anti-actin to illustrate even loading.

[5] = system: small-cell lung carcinoma cells; assay: Cell proliferation by cell-cycling markers Ki67 and PCNA (Western blots); conditions: 0.1-5 nM; 4 days
[6] = system: primary neuroendocrine tumor cells; assay: Cell proliferation by Ki67 and PCNA (Western blotting); conditions: 1 nM; 4 days

Q: How did the “mTOR, Akt and ERK activation (phosphorylated mTOR, Akt and ERK)” value [1] turn out when CN1CCC2(CC1)NCC(=O)N2Cc1ccccc1 [Compound C0105] was run?
A: Its value is “robustly reduces mTOR, Akt and ERK activation”.

Q: And the “mTOR, Akt and ERK activation (phosphorylated mTOR, Akt and ERK)” value [2]?
A: Its value is “little effect on mTOR, Akt and ERK activation”.

Q: And the “Cell proliferation (Ki67 and PCNA levels)” value (from here on “Cell proliferation”) [3]?
A: Its value is “reduces cell proliferation”.

Q: And the “Glucose deprivation-induced cell death by cleaved PARP-1 and caspase-3” value [4]?
A: The value was “reduces glucose deprivation-induced cell death”.

Q: What about the “Cell proliferation” value [5] of the same compound?
A: Its value is “reduces cell proliferation”.

Q: What about the “Cell proliferation” value [6] of the same compound?
A: Its value is “Inhibits Proliferation”.
